Assay results taken from article PMC12278908, “Genome integrity sensing by the broad-spectrum Hachiman antiphage defense complex” (Cell, 2024).

Target: T1, HamAB (Escherichia coli, UniProt A0A426EXV0)
T1 construct: gene DU321_04165; native locus coexpressed in E. coli BL21-AI; only HamA tagged 10xHis-MBP-TEV, TEV-treated; 1:1 heterodimer; with Hachiman antiphage defense system nuclease HamA (DUF1837 domain-containing protein)
T1 sequence (A0A426EXV0 1-1174): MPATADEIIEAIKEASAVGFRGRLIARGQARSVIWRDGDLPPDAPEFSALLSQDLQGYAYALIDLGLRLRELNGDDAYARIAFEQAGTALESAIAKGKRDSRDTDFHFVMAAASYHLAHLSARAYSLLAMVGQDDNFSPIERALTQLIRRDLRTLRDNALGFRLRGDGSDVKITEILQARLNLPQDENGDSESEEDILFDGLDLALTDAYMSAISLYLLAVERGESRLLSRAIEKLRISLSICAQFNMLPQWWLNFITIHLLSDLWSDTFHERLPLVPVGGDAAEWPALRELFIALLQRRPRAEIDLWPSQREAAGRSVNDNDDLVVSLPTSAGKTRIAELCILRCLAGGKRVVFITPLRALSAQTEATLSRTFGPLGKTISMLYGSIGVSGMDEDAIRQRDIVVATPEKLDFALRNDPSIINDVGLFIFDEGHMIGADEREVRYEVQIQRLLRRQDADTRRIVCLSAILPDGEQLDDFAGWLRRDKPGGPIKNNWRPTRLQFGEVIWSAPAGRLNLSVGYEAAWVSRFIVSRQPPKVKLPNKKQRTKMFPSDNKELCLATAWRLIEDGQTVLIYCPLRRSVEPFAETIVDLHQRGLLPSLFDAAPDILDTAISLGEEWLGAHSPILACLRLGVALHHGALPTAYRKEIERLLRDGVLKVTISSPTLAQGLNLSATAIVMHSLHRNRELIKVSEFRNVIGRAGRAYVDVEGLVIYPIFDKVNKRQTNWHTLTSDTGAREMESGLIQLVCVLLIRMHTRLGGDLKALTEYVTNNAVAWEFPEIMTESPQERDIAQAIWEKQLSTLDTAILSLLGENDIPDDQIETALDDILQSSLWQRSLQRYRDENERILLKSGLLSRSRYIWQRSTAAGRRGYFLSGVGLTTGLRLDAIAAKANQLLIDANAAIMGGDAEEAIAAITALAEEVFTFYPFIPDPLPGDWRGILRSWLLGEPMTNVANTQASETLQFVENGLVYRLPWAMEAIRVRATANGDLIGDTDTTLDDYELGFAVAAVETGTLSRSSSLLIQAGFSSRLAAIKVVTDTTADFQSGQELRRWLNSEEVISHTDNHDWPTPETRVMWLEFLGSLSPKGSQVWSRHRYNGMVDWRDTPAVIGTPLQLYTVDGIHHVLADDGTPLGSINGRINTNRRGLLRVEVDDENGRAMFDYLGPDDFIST
T1 sequence (Q6XGE5 1-259 partner): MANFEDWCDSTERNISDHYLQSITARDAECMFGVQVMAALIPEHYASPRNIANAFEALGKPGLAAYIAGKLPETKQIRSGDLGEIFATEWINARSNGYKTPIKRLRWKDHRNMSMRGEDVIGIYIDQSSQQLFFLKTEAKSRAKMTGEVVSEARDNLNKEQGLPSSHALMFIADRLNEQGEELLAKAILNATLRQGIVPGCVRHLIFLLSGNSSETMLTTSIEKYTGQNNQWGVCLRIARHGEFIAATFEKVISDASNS
Assay: malachite green phosphate release ATPase assay
Type: biochemical
Settings: with or without supercoiled plasmid DNA; 1 mM ATP, 2 mM MgSO4, pH 8.8, 37 °C

Nc1ncnc2c1ncn2[C@@H]1O[C@H](COP(=O)(O)OP(=O)(O)OP(=O)(O)O)[C@@H](O)[C@H]1O [ATP]
malachite green phosphate release ATPase assay: ATPase assays with HamB, HamAB, and HamA*B in the presence of plasmid DNA
